Assays:
Tubulin (Homo sapiens) = Tubulin (Homo sapiens) (UniProt P68371+Q9H4B7+P0DPH7+P68366+Q13509+Q71U36+P04350+Q3ZCM7+P07437+P68363+Q9BQE3+Q6PEY2+Q13885+Q9BVA1+Q9BUF5); assay: Inhibition of tubulin (unknown origin) polymerization at 50 uM by turbidometric method relative to control; type: protein-complex assay
In short: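 Compound was incubated at 0° C. with microtubule protein whose origin is not stated. In cuvettes, 1 mM GTP was added and the temperature raised to 37° C. to start polymerisation, and a thermostatically controlled spectrophotometer followed absorbance at 340 nm over time. The values give inhibition of polymerisation as percent relative to control.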

[1] = Cytotoxicity against human PC3 cells assessed as growth inhibition at 20 uM after 40 hrs by MTT assay relative to control; type: functional; conditions: PC-3, 40 h, read-out: GI
In short: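 Growth inhibition was measured against control in human tumour cells taken in late log phase, each in its own medium with 10% FBS. Cells (90 µL per well, 1.1× final, 50000 to 200,000 cell/mL) were added to 10 µL of compound at 10× final in 96-well plates and incubated 40 hr at 37° C., 5% CO2. Readout used MTT for 6 hours, overnight lysis with SDS/HCl and absorbance at 590 nm.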

| Compound | inhibition (Tubulin (Homo sapiens)) [%] | inhibition of growth at 20 µM [1] [%] |
| --- | --- | --- |
| CCCC(Nc1cncc(-c2cc(OC)c(OC)c(OC)c2)c1)c1ccccc1 (configuration not stated) |  | > 50 |
| CCCC(Nc1cncc(-c2ccc(OCCCN3CCCC3)c(OC)c2)n1)c1cccnc1 (configuration not stated) |  | < 50 |
| CCCC(Nc1cncc(-c2ccc(OCCN(CC)CC)c(OC)c2)n1)c1cncc(C)c1 (configuration not stated) |  | < 50 |
| CCCC(Nc1cncc(-c2ccc(C(=O)NCCCN3CCOCC3)cc2)n1)c1ccccc1 (configuration not stated) |  | < 50 |
| CCCC(Nc1cncc(-c2ccc(CO)c(OC)c2)n1)c1cccnc1 (configuration not stated) |  | < 50 |
| CCCC(Nc1cncc(-c2ccc(OCCCCN(CC)CC)c(OC)c2)n1)c1ccccc1 (configuration not stated) | > 50 | > 50 |
| CCC[C@H](Nc1cncc(-c2ccc(NC(=O)CN(C)C)c(OC)c2)n1)c1cccnc1 |  | > 50 |
| COc1cc(-c2nc(N[C@H](C)c3ccccc3)nnc2C)cc(OC)c1OC |  | < 50 |
| CCCC(Nc1cncc(-c2ccc(C(=O)NCCN(C)C)cc2)n1)c1ccccc1 (configuration not stated) |  | < 50 |
| COc1cc(-c2nc(N[C@H](C)c3ccccc3)nnc2C)ccc1O |  | < 50 |
| CCCC(Nc1cncc(-c2ccc(OCCCCN3CCOCC3)c(OC)c2)n1)c1ccccc1 (configuration not stated) |  | < 50 |
| COc1cc(-c2ncc(C)c(NC(CCO)c3ccccc3)n2)ccc1O (configuration not stated) |  | < 50 |
| CCCC(Nc1cncc(-c2ccc(C(=O)NCCCN(CC)CC)cc2)n1)c1ccccc1 (configuration not stated) |  | < 50 |
| CCCC(Nc1cncc(-c2ccc(CN3CCC(O)CC3)cc2)n1)c1ccccc1 (configuration not stated) |  | < 50 |
| CCCC(Nc1cncc(-c2ccc(OCCCN(CC)CC)c(OC)c2)n1)c1ccccc1 (configuration not stated) | > 50 | > 50 |
| CCNC(=O)Nc1ccc(-c2cncc(N[C@@H](CC)c3cccnc3)n2)cc1OC | > 50 | > 50 |
| CCCC(Nc1cncc(-c2ccc(CN3CCCCC3)cc2)n1)c1ccccc1 (configuration not stated) |  | < 50 |
| CCCC(Nc1cncc(-c2ccc(NC(=O)c3cccnc3)c(OC)c2)n1)c1cccnc1 (configuration not stated) |  | < 50 |

| Compound | inhibition (Tubulin (Homo sapiens)) [%] | inhibition of growth at 20 µM [1] [%] |
| --- | --- | --- |
| CCCC(Nc1cncc(-c2ccc(CN3CCOCC3)cc2)n1)c1ccccc1 (configuration not stated) |  | < 50 |
| CCCC(Nc1cncc(-c2ccc(NC(=O)NCCCN(CC)CC)c(OC)c2)n1)c1cccnc1 (configuration not stated) |  | < 50 |
| CCCC(Nc1nnc(C)c(-c2cc(OC)c(OC)c(OC)c2)n1)c1ccccc1 (configuration not stated) |  | < 50 |
| CCCC(Nc1cncc(-c2ccc(OCCCN3CCN(C)CC3)c(OC)c2)n1)c1cccnc1 (configuration not stated) |  | < 50 |
| CCCC(Nc1cncc(-c2ccc(CNC(=O)C3CCC(=O)N3)cc2)n1)c1ccccc1 (configuration not stated) |  | < 50 |
| CCCC(Nc1cncc(-c2ccc(NC(=O)N3CCN(C)CC3)c(OC)c2)n1)c1cccnc1 (configuration not stated) |  | > 50 |
| CCCC(Nc1cncc(-c2ccc(C(=O)N3CCOCC3)cc2)n1)c1ccccc1 (configuration not stated) |  | < 50 |
| CCNC(=O)Nc1ccc(-c2cncc(NC(C)c3cccnc3)n2)cc1OC (configuration not stated) |  | < 50 |
| CCCC(Nc1cncc(-c2ccc(C(=O)NCCCCCN)c(C)c2)n1)c1cccnc1 (configuration not stated) |  | < 50 |
| CCCC(Nc1cncc(-c2ccc(NC(=O)NCC)cc2)n1)c1cccnc1 (configuration not stated) |  | < 50 |
| CCCC(Nc1cncc(-c2ccc(OCCCN3CCOCC3)c(OC)c2)n1)c1ccccc1 (configuration not stated) |  | > 50 |
| CCCC(Nc1cncc(-c2ccc(OCCCN3CCOCC3)c(OC)c2)n1)c1cccnc1 (configuration not stated) |  | < 50 |
| CCCC(Nc1cncc(-c2ccc(C(=O)N3CCN(C)CC3)cc2)n1)c1ccccc1 (configuration not stated) |  | < 50 |
| CCCC(Nc1cncc(-c2ccc(NC(=O)C3CCNCC3)c(OC)c2)n1)c1cccnc1 (configuration not stated) |  | < 50 |
| CCCC(Nc1cncc(-c2ccc(CN(C)C)cc2)n1)c1ccccc1 (configuration not stated) |  | < 50 |
| CCCC(Nc1cncc(-c2ccc(CN3CCC[C@H]3CO)cc2)n1)c1ccccc1 (some centres not stated) |  | < 50 |
| CCCC(Nc1cncc(-c2ccc(CN3CCN(C)CC3)cc2)n1)c1ccccc1 (configuration not stated) |  | < 50 |

Further lines, with some results ahead:

| inhibition (Tubulin (Homo sapiens)) [%] | Compound | inhibition of growth at 20 µM [1] [%] |
| --- | --- | --- |
| > 50 | CCCC(Nc1cncc(-c2ccc(NC(=O)NCC)c(C)c2)n1)c1cnccc1C (configuration not stated) | > 50 |
| > 50 | CCC[C@H](Nc1cncc(-c2ccc(NC(=O)NCC)c(C)c2)n1)c1cccnc1 | > 50 |
| > 50 | CCCC(Nc1cncc(-c2cc(C)c(O)c(C)c2)c1)c1ccccc1 (configuration not stated) | > 50 |
| > 50 | CCCC(Nc1cncc(-c2ccc(OCCCCN3CCCC3)c(OC)c2)n1)c1ccccc1 (configuration not stated) | > 50 |
| > 50 | CCCC(Nc1cncc(-c2ccc(CNC(=O)C3CCCNC3)cc2)n1)c1ccccc1 (configuration not stated) | > 50 |
| > 50 | COc1cc(-c2cncc(N[C@@H](C)c3ccccc3)c2)ccc1O | > 50 |
| > 50 | COc1cc(-c2cncc(NC(C)c3ccc(-c4cccnc4)cc3)n2)ccc1O (configuration not stated) |  |
| > 50 | COc1cc(-c2cncc(NC(C)c3cccc(NC(=O)[C@H]4CCCN4)c3)n2)ccc1O (some centres not stated) |  |
| > 50 | CCCC(Nc1cncc(-c2ccc(OCCCO)c(OC)c2)n1)c1ccccc1 (configuration not stated) | > 50 |
| > 50 | CCCC(Nc1nc(-c2ccc(NC(=O)NCC)c(OC)c2)cnc1C)c1ccccc1 (configuration not stated) | > 50 |
| > 50 | CCNC(=O)Nc1ccc(-c2cncc(NC(CCOC)c3ccccc3)n2)cc1OC (configuration not stated) | > 50 |
| > 50 | CCCC(Nc1cncc(-c2ccc(OCCCn3ccnc3)c(OC)c2)n1)c1ccccc1 (configuration not stated) | > 50 |
| > 50 | CCCC(Nc1cncc(-c2ccc(OCCCCN)c(OC)c2)n1)c1ccccc1 (configuration not stated) | > 50 |
| > 50 | CCCC(Nc1cncc(-c2ccc(NC(=O)NCC)c(OC)c2)n1)c1cccnc1 (configuration not stated) | > 50 |
| > 50 | CCCC(Nc1cncc(-c2ccc(NC(=O)NCC)c(C)c2)n1)c1cccnc1 (configuration not stated) | > 50 |
| > 50 | CCCC(Nc1nnc(C)c(-c2ccc(O)c(OC)c2)n1)c1ccccc1 (configuration not stated) | > 50 |
| > 50 | CCCC(Nc1cncc(-c2ccc(OCCCN3CCCC3)c(OC)c2)n1)c1ccccc1 (configuration not stated) | > 50 |
| > 50 | CCNC(=O)Nc1ccc(-c2cncc(N[C@@H](COC)c3ccccc3)n2)cc1OC | > 50 |
| > 50 | CCNC(=O)Nc1ccc(-c2cncc(N[C@@H](COCC)c3ccccc3)n2)cc1OC | > 50 |
| > 50 | CCCC(Nc1cc(-c2ccc(O)c(OC)c2)ncn1)c1cccnc1 (configuration not stated) | > 50 |
| > 50 | CCCC(Nc1cncc(-c2ccc(CO)cc2)n1)c1ccccc1 (configuration not stated) | > 50 |

| inhibition (Tubulin (Homo sapiens)) [%] | Compound | inhibition of growth at 20 µM [1] [%] |
| --- | --- | --- |
| > 50 | CCCC(Nc1cncc(-c2ccc(OCCCCO)c(OC)c2)n1)c1ccccc1 (configuration not stated) | > 50 |
| > 50 | CCC[C@H](Nc1cncc(-c2ccc(NC(=O)NCC)c(OC)c2)n1)c1cccnc1 | > 50 |
| > 50 | CCCC(Nc1cncc(-c2ccc(OCCN(CC)CC)c(OC)c2)n1)c1ccccc1 (configuration not stated) | > 50 |
| > 50 | CCCC(Nc1cncc(-c2ccc(CN3CCCC3)cc2)n1)c1ccccc1 (configuration not stated) | > 50 |
| > 50 | COc1cc(-c2cc(N[C@@H](C)c3ccccc3)ncn2)ccc1O | > 50 |
| > 50 | CCC[C@H](Nc1cncc(-c2ccc(NC(=O)NCC)c(OC)c2)n1)c1ccccc1 | > 50 |
| > 50 | CCCC(Nc1cncc(-c2ccc(NC(=O)NCCN(C)C)c(OC)c2)n1)c1cccnc1 (configuration not stated) | > 50 |
| > 50 | CCCC(Nc1cncc(-c2ccc(NC(=O)NCC)c(OC)c2)n1)c1cncc(C)c1 (configuration not stated) | > 50 |
| > 50 | CCCC(Nc1cncc(-c2ccc(OCCCN3CCN(C)CC3)c(OC)c2)n1)c1ccccc1 (configuration not stated) | > 50 |
| > 50 | CCCC(Nc1cncc(-c2ccc(OCCCCN3CCN(C)CC3)c(OC)c2)n1)c1ccccc1 (configuration not stated) | > 50 |
| > 50 | CCCC(Nc1cncc(-c2ccc(NC(=O)NCC)c(C)c2)n1)c1ccccn1 (configuration not stated) | > 50 |
| > 50 | CCCC(Nc1cncc(-c2ccc(NC(=O)NCC)c(OC)c2)n1)c1cccnc1C (configuration not stated) | > 50 |
| > 50 | COc1cc(-c2nccc(N[C@@H](C)c3ccccc3)n2)ccc1O | > 50 |
| > 50 | CCC[C@H](Nc1ccnc(-c2ccc(NC(=O)NCC)c(OC)c2)n1)c1cccnc1 | > 50 |
| > 50 | CCCC(Nc1cncc(-c2ccc(NC(=O)NCC)c(OC)c2)n1)c1ccccn1 (configuration not stated) | > 50 |
| > 50 | CCC[C@H](Nc1cc(-c2ccc(NC(=O)NCC)c(OC)c2)ncn1)c1cccnc1 | > 50 |
| > 50 | CCCC(Nc1cncc(-c2ccc(NC(=O)NCCCN3CCOCC3)c(OC)c2)n1)c1cccnc1 (configuration not stated) | > 50 |
| > 50 | CC[C@H](Nc1nc(-c2ccc(O)c(OC)c2)ncc1C)c1cccnc1 | > 50 |
| > 50 | CC[C@H](Nc1cncc(-c2ccc(O)c(OC)c2)n1)c1ccccc1 |  |
| > 50 | COc1cc(-c2cncc(N[C@@H](C)c3ccccc3)n2)ccc1O |  |
| > 50 | COc1cc(-c2cncc(NC(C)c3cccc(NC(=O)c4cccnc4)c3)n2)ccc1O (configuration not stated) |  |
